# Experimental data published in US4883801A, “Xanthine derivative pest control agents” (priority 1986, dated 1989).
# Several values for one entry are separate records, joined by “and”; a condition that tells them apart may be missing. Equal entries are not always repeated.
# How the values were obtained:
# [1] = system: light organ octopamine-stimulated adenylate cyclase; details: cited from earlier work
# [2] = Tissue level of theophylline in larvae after feeding on sprayed leaves (immunoenzymatic assay); format: in vivo, Manduca sexta; details: 1% spray, three days of feeding; mean ± deviation, two groups of six pooled animals; 4320 min; read-out: internal theophylline concentration of larvae
# Description: To determine if the dosage of xanthine derivatives described in experiments 4, 7 and 8-11 and ingested by the larvae (causing pestistatic and pesticidal activity in vivo) were actually absorbed by the animals and were sufficient to inhibit PDE in vitro, additional experiments were carried out in order to estimate tissue levels of xanthine derivative following three days of feeding on various doses of the derivative. Groups of six larvae were placed on leaves treated with vehicle or theophylline spray. After three days, leaf area was recorded and larvae (alive or dead) were rinsed to remove any compound adhering to their cuticle, homogenized whole, centrifuged, and the cell-free supernatant assayed for theophylline content by immunoenzymatic assay (Emit-AAD theophylline assay (Syva Company, Palo Alto, CA.)). […] From mammalian studies, it is known that theophylline penetrates freely into all body compartments (Rall, T. W., supra.). […] This observation tends to rule out the hypothesis wherein adenosine receptors are involved as a mechanism for the antifeeding effects of the xanthine derivatives, since, in vertebrates, xanthine derivatives such as theophylline are competitive adenosine receptor antagonists, but exert such antagonism at much lower concentrations, typically 1-25 micromoles. […]
# [3] = system: Manduca sexta (tobacco hornworm) larvae; test: Antifeeding test: tomato leaves sprayed with compound, tobacco hornworm larvae; format: in vivo
# [4] = system: hornworm nerve cord PDE (cyclic AMP phosphodiesterase); test: Inhibition of cyclic AMP phosphodiesterase activity in homogenates of tobacco hornworm nerve cord; format: biochemical, Manduca sexta; details: for activity of structurally similar compounds tested as described in Example 46: Example 47
# Description: Nerve cord was dissected from 40-60 mm long M. sexta larvae, cleaned, and homogenized (2 mg/ml) in 6 Mm Tris-maleate, pH 7.4. PDE activity was measured (4 min. incubation at 30° C.) in an assay system (0.1 ml) containing 80 mM Tris-maleate, pH 7.4; 6 mM Mg--SO4; 10^-7 M^3 H-cyclic AMP; and tissue homogenate (0.02 ml). Nerve cord was evaluated in the presence and the absence of the xanthine derivative. For purposes of the evaluation, the rate of formation of ^3 H-5' AMP was measured using the technique described in Filburn, C. […] The values shown in FIG. 1D are the mean (±SEM) of three separate experiments.
# [5] = system: Callosobrucaus chinensis; details: concentration of 1.5%; cited from earlier work
# [6] = system: adenosine receptor; details: Bruns et al.; cited from earlier work
# [7] = system: larvae of Manduca sexta (tobacco hornworm); test: Feeding on artificial media containing the test material; format: in vivo; details: concentrations found naturally in undried tea leaves or coffee beans
# Description: Various concentrations of finely powdered tea leaves or powdered coffee beans were mixed in artificial media which was then plated out in small petri dishes and allowed to harden. […] At concentrations greater than 10% (for coffee) or 3% (for tea), larvae were killed within 24 hours.
# The larvae of Manduca sexta were fed on either artificial or natural food. When added to artificial media, caffeine (the major methylxanthine found in tea and coffee) exerted behavioral effects that were qualitatively similar to those of the tea and coffee described above. […] Further, the dried tea leaves, which contain 2-3 times the caffeine content of dried coffee beans, were about 2-3 times as effective as coffee beans in inhibiting weight gain. Further, the concentrations of caffeine which are found naturally in undried tea leaves (0.68-2.1%) or coffee beans (0.8-1.8%) were sufficient to kill most Manduca larvae. Thus, caffeine functions as an endogenous insecticide.
Structure (SMILES),potency as partial agonist relative to octopamine [1],concentration [2] [µM],"inhibition of leaf consumption ([3]; 1% spray, three days)",Vmax (percent inhibition of feeding at the highest dose used) ([3]; highest dose usually a 3% spray solution) [%],"EC50 (spray concentration required to cause 50% inhibition of feeding) ([3]; spray on tomato leaves, calculated from dose-response curves, Manduca sexta 6 per leaf)",activity of structurally similar compounds tested as described in Example 46 [4],inhibition of hornworm nerve cord PDE activity in vitro ([4]; at the internal concentration found (4.1 mM)) [%],sterility [5] [%],EC50 (spray concentration required to cause 50% inhibition of feeding) ([3]; in vivo),Vmax (percent inhibition of feeding at the highest dose used) ([3]; in vivo),antifeeding effect (in words) ([3]; in vivo),weaker than theophylline as an adenosine antagonist [6] [fold],PDE inhibition (in words) ([4]; FIG. 1D),concentrations sufficient to kill most Manduca larvae [7]
"CNC=Nc1ccc(Cl)cc1C [DCDM, N-demethylchlordimeform]",about six-fold more potent than octopamine,–,–,–,–,–,–,–,–,–,–,–,–,–
"Cn1c(=O)c2[nH]cnc2n(C)c1=O [Example 15, 1,3-dimethyl-xanthine (theophylline), reference compound]",–,4100 ± 1100,about 50%,94,1.5 % (gm/100 ml),active,> 80,–,–,–,–,–,–,–
"Cn1c(=O)c2c(ncn2C)n(C)c1=O [Example 23, 1,3,7-trimethyl-xanthine (caffeine)]",–,–,–,–,–,active,–,~100,0.3,98,somewhat more potent than theophylline,10,about equally potent,0.68-2.1% and 0.8-1.8%
